Measured values published in ChEMBL document CHEMBL5360530, “Structure activity relationship (SAR) and anticancer activity of pyrrolidine derivatives: Recent developments and future prospects (A review)” (Eur J Med Chem, 2023).
Values after ≈ are worked out from the molar mass of the structure shown. Blank lines part the entries; values can stand above or below the molecule they belong to.

Columns and labels:
PC-3 [1] = experiment: Anticancer activity against human PC-3 cell assessed as cell growth inhibition; assay type: functional, cell-based
HepG2 = experiment: Anticancer activity against human HepG2 cell assessed as cell growth inhibition; assay type: functional, cell-based
PC-3 [2] = experiment: Potency index, ratio of cisplatin IC50 to test compound IC50 for anticancer activity against human PC-3 cells; assay type: functional
HCT-116 [3] = experiment: Anticancer activity against human HCT-116 cell assessed as cell growth inhibition; assay type: functional, cell-based
Mahlavu = experiment: Anticancer activity against human Mahlavu cells assessed as cell growth inhibition measured after 24 hrs by SRB assay; assay type: functional, cell-based
Huh-7 = experiment: Anticancer activity against human Huh-7 cells assessed as cell growth inhibition measured after 24 hrs by SRB assay; assay type: functional, cell-based; settings: Huh-7, 24 h
HCT-116 [4] = experiment: Anticancer activity against human HCT-116 cells assessed as cell growth inhibition measured after 24 hrs by SRB assay; assay type: functional, cell-based; settings: HCT-116, 24 h
MCF7 [5] = experiment: Anticancer activity against human MCF7 cells assessed as cell growth inhibition measured after 24 hrs by SRB assay; assay type: functional, cell-based; settings: MCF7, 24 h
PC-3 [6] = experiment: Anticancer activity against human PC-3 cells assessed as cell death at 50 uM measured after 72 hrs by MTT assay relative to control; assay type: functional
MCF7 [7] = experiment: Growth inhibition of human MCF7 cells assessed as cell growth inhibition by SRB assay; assay type: functional
COS-7 = experiment: Anticancer activity against COS-7 cells assessed as cell growth inhibition at 50 uM measured after 48 hrs by MTT assay relative to control; assay type: functional; settings: Chlorocebus aethiops
MDA-MB-435 = experiment: Anticancer activity against human MDA-MB-435 cells assessed as cell growth inhibition by SRB assay; assay type: functional, cell-based
MCF7 [8] = experiment: Anticancer activity against human MCF7 cells assessed as cell growth inhibition by SRB assay; assay type: functional, cell-based
MCF7 [9] = experiment: Anticancer activity against human MCF7 cells assessed as cell growth inhibition measured after 24 hrs by MTT assay; assay type: functional, cell-based; settings: MCF7, 24 h
HT-29 [10] = experiment: Anticancer activity against human HT-29 cells assessed as cell growth inhibition measured after 24 hrs by MTT assay; assay type: functional, cell-based; settings: HT-29, 24 h
HT-29 [11] = experiment: Anticancer activity against human HT-29 cells assessed as cell growth inhibition measured after 48 hrs by MTT assay; assay type: functional, cell-based; settings: HT-29, 48 h
K562 = experiment: Anticancer activity against human K562 cells assessed as cell growth inhibition measured after 48 hrs by MTT assay; assay type: functional, cell-based; settings: K562, 48 h
MCF7 [12] = experiment: Anticancer activity against human MCF7 cells assessed as cell growth inhibition measured after 48 hrs by MTT assay; assay type: functional, cell-based; settings: MCF7, 48 h
A549 = experiment: Anticancer activity against human A549 cells assessed as cell growth inhibition measured after 48 hrs by MTT assay; assay type: functional, cell-based; settings: A549, 48 h

Structure (SMILES): COC(=O)[C@H]1C[C@@H](C(=O)OC)C(c2ccccc2)(c2ccccc2)N1C(=O)Cn1cc(C2CCCC2)nn1
Activity (PC-3 [6]): 30%

Structure (SMILES): O=C(/C=C/c1ccc(OCCN2CCCC2)cc1)c1ccc(Cl)cc1Cl
GI50 (MCF7 [7]): > 80 µg/mL

Structure (SMILES): O=C1Nc2ccccc2C12CCNC2c1cccc(F)c1 (centres undefined)
inhibition at 50 µM (COS-7): 0.51%

Structure (SMILES): COc1ccc(C2NCCC23C(=O)Nc2ccccc23)cc1OC (centres undefined)
inhibition at 50 µM (COS-7): 0.51%

Structure (SMILES): O=C1Nc2ccccc2C12CCNC2c1cc(C(F)(F)F)ccc1C(F)(F)F (centres undefined)
inhibition at 50 µM (COS-7): 0.51%

Structure (SMILES): O=C(/C=C/c1ccc(Cl)cc1Cl)c1ccc(OCCN2CCCC2)cc1
GI50 (MCF7 [7]): 24.7 µg/mL (≈ 63.3 µM)

Structure (SMILES): COC(=O)[C@H]1C[C@@H](C(=O)OC)C(c2ccccc2)(c2ccccc2)N1C(=O)Cn1cc(C2CC2)nn1
Activity (PC-3 [6]): 25%

Structure (SMILES): COC(=O)[C@H]1C[C@@H](C(=O)OC)C(c2ccccc2)(c2ccccc2)N1C(=O)Cn1cc(-c2ccccc2)nn1
Activity (PC-3 [6]): 30%

Structure (SMILES): COc1cc(OC)c(C2NCCC23C(=O)Nc2ccccc23)cc1OC (centres undefined)
inhibition at 50 µM (COS-7): 0.51%

Structure (SMILES): Cc1cc(=O)oc2cc(NC(=O)CN3CCC[C@@H]3C#N)ccc12
IC50 (A549): 4020 nM
IC50 (MCF7 [12]): 4.43 µM

Structure (SMILES): O=C(/C=C/c1c(Cl)cccc1Cl)c1ccc(OCCN2CCCC2)cc1
GI50 (MCF7 [7]): > 80 µg/mL

Now from value to molecule, other results behind:

IC50 (PC-3 [1]): 8 µM
IC50 (HepG2): 5.5 µM
IC50 (HCT-116 [3]): 9 µM
Structure (SMILES): O=C(c1c[nH]c2ccccc12)[C@@H]1[C@@H](c2cccc(F)c2)[C@@H]2CSCN2[C@@]12C(=O)Nc1ccccc12
Ratio IC50 (PC-3 [2]): >2.9

IC50 (Huh-7): 36.6 µM
IC50 (HCT-116 [4]): 10.5 µM
IC50 (MCF7 [5]): 11.2 µM
Structure (SMILES): CC(C)C[C@@H]1N2[C@H](c3ccccc3)[C@H](c3ccccc3)OC(=O)[C@H]2[C@H](c2ccccc2Cl)[C@@]12C(=O)Nc1ccccc12
IC50 (Mahlavu): 26.3 µM

IC50 (HepG2): 5.5 µM
Structure (SMILES): O=C(c1c[nH]c2ccccc12)[C@@H]1[C@@H](c2ccc(Cl)cc2Cl)[C@@H]2CSCN2[C@@]12C(=O)Nc1ccccc12
Ratio IC50 (PC-3 [2]): >4.3

IC50 (PC-3 [1]): 7 µM
IC50 (HepG2): 5.5 µM
Structure (SMILES): O=C(c1c[nH]c2ccccc12)[C@@H]1[C@@H](c2ccc(Br)cc2)[C@@H]2CSCN2[C@@]12C(=O)Nc1ccccc12
Ratio IC50 (PC-3 [2]): >3

IC50 (MDA-MB-435): ≥ 3.6 µM
IC50 (MCF7 [8]): ≥ 53 µM
Structure (SMILES): N#CC1=C(N)OC2=C(c3ccccc3C2=O)C12C(=O)Nc1ccc(I)cc12 (centres undefined)

IC50 (Huh-7): 8.2 µM
IC50 (HCT-116 [4]): 3.9 µM
IC50 (MCF7 [5]): 4.8 µM
Structure (SMILES): CCNC(=O)[C@H]1[C@H](c2ccc([N+](=O)[O-])cc2)[C@@]2(C(=O)Nc3ccccc32)[C@H](CC(C)C)N1[C@H](c1ccccc1)[C@@H](O)c1ccccc1
IC50 (Mahlavu): 14.9 µM

IC50 (MCF7 [9]): 293 µM
IC50 (HT-29 [10]): 278 µM
Structure (SMILES): COc1cc(/C=N/N2C(=O)c3ccccc3C2=O)cc(OC)c1O

IC50 (Huh-7): 77.8 µM
IC50 (HCT-116 [4]): 3.9 µM
IC50 (MCF7 [5]): 4.8 µM
Structure (SMILES): CC(C)C[C@@H]1N2[C@H](c3ccccc3)[C@H](c3ccccc3)OC(=O)[C@H]2[C@H](c2ccc([N+](=O)[O-])cc2)[C@@]12C(=O)Nc1ccccc12
IC50 (Mahlavu): 14.9 µM

IC50 (Huh-7): 8.2 µM
IC50 (HCT-116 [4]): 3.9 µM
IC50 (MCF7 [5]): 4.8 µM
Structure (SMILES): CC(C)C[C@@H]1N2[C@H](c3ccccc3)[C@H](c3ccccc3)OC(=O)[C@H]2[C@H](c2ccccc2)[C@@]12C(=O)Nc1ccccc12
IC50 (Mahlavu): 14.9 µM

IC50 (HT-29 [11]): 0.39 µM
IC50 (K562): 61.9 µM
IC50 (MCF7 [12]): 0.78 µM
Structure (SMILES): O=C1CCC(=O)N1CC(=O)N1N=C(c2ccccc2)CC1c1ccc(Cl)c(Cl)c1 (centres undefined)

IC50 (HT-29 [11]): 19.9 µM
IC50 (K562): 0.35 µM
IC50 (MCF7 [12]): 47.2 µM
Structure (SMILES): CC(=O)O[C@H]1C(=O)[C@@]2(C)[C@H]([C@H](OC(=O)c3ccccc3)[C@]3(O)C[C@H](OC(=O)[C@H](O)[C@@H](NC(=O)c4ccccc4)c4ccccc4)C(C)=C1C3(C)C)[C@]1(OC(C)=O)CO[C@@H]1C[C@@H]2O [PACLITAXEL]

IC50 (MCF7 [9]): 293 µM
IC50 (HT-29 [10]): 254 µM
Structure (SMILES): O=C1c2ccccc2C(=O)N1/N=C/c1ccc(F)c(Br)c1

IC50 (HCT-116 [4]): 5.07 µM
Structure (SMILES): CC(=O)Oc1ccc(C(=O)/C=C2/C(=O)Nc3ccc(S(=O)(=O)N4CCOCC4)cc32)cc1

IC50 (A549): 1800 nM
IC50 (MCF7 [12]): 4.8 µM
Structure (SMILES): O=C(CN1CCCC1)Nc1cc2ccccc2oc1=O

IC50 (MDA-MB-435): ≥ 3.6 µM
IC50 (MCF7 [8]): ≥ 53 µM
Structure (SMILES): N#CC1=C(N)OC2=C(c3ccccc3C2=O)C12C(=O)Nc1ccc(Br)cc12 (centres undefined)
